Source: patent US6797723B1, “Heterocycle substituted diphenyl leukotriene antagonists” (Eli Lilly and Company, priority 1999, dated 2004)
Several values for one entry are separate records, joined by “and”; a condition that tells them apart may be missing. Equal values may be shown once. Where a name gives a salt, the structure may show the parent alone. Read-outs that look alike come from different tables or passages of the source.

What was measured:
[1] = test system: LTB4-mediated CD11b upregulation on human neutrophils; assay: LTB4-mediated CD11b upregulation on human neutrophils (flow cytometry, anti-CD11b-FITC); format: cell-based
Protocol: The following Assay method was used to evaluate the effects of 3 compounds for LTB4-mediated CD11b upregulation on human neutrophils:
Note: The Assay procedure described herein was modeled after a previously published method(viz., Prostaglandins, Leukot, Essent. Fatty Acids. 46:265-270. 1992, Biochem. Pharmacol. 49:1683-1690. 1995), the disclosure of which is incorporated herein by reference.
Approximately 1-2 mg of each compound was weighed and diluted to 1 mM in neat dimethyl sulphoxide (DMSO). These stocks were then diluted (using “doubling” dilutions) in assay buffer.
The assay buffer used throughout the studies consisted of Hanks Balanced Salts Solution (HBSS) with added 0.5% bovine serum albumin, low endotoxin (ICN Biomedicals Catalog #16-980-49). After dissolving the BSA in the HBSS, the buffer was membrane-filtered (0.2 μ) before use.
Human blood was drawn into 3×10 ml EDTA-K3 Vacutainer tubes, which were pooled and mixed in a 50 ml, blue cap polypropylene tube. Three ml portions of Mono-Poly Resolving medium (MPRM; ICN #16-980-49) were dispensed into 4 separate 13×100 glass disposable tubes. An additional 0.3 ml of PBS (phosphate buffered saline) was added to each tube and mixed with the MPRM by vigorous vortexing. Exactly 3.5 ml of the blood was carefully layered on top of the four MPRM-water mixtures. The tubes were gradually accelerated to 400×g and spun at this speed for 30 min at room temperature. Tubes were removed from the centrifuge and both the plasma and top cell (mononuclear) layers were removed and discarded. The second layer of cells was carefully collected, pooled and washed with assay buffer. The collected neutrophil cell preparation was then spun at 400×g for 5 min and re-washed once again. The cells were resuspended in assay buffer and counted using a Cell-Dyn 1600 cell counter (Abbott Diagnostics Co.). They were then resuspended in buffer at 9×10^6 cells/ml and held briefly for addition in a later step of the assay.
LTB4, (Biomol; ETOH stock @148.5 μM) was diluted to a 3.9 μM stock in assay buffer by dilution of 10 μl ETOH stock+371 μl assay buffer, mixed well and further diluted 1:100 (100 μl+9.9 ml buffer) to make a use stock of 39 nm in buffer for later use. The final concentration of LTB4 (3 nM) was determined after several experimental runs.
Exactly 10 μl of each putative compound/dilution and 10 μl of anti-CD11b-FITC (FITC=Fluorescein Isothiocyanate; Biosource Intl., #AHS1148) was carefully added to the bottom of 12×75 mm polypropylene tubes (Falcon #2063) as determined by the experimental design. Following this, 100 μl of the human neutrophil preparation (9E6/ml) was added and mixed well by vortexing. The compound/cell mixtures were incubated together for 15 minutes at room temperature. Following this incubation, 10 μl of diluted LTB4 stock was added (to make 3 nM final LTB4 concentration), mixed by vortexing and incubated in a 37° C. shaking water bath for 30 min. Following this the tubes were immediately placed on ice for 10 minutes. Following this 1 ml of diluted BD FACS Lyse (Becton Dickinson Fluorescense Activated Cell Sorting Lyse) was added to the tubes and vortexed. 10 minutes later the tubes were spun at 400×g at room temperature. After centrifugation, the tubes were aspirated and re-suspended in 1.0 ml of 1% paraformaldehyde solution.
The samples were then analyzed for fluorescence intensity (linear scale) using an EPICS XL flow cytometer and the “Mo-1 Isolated Neutrophil” protocol.
The mean fluorescence intensity (MFI) for each sample was computed using WinList software and expressed as percentage of maximum MFI.Microsoft Excel and further graphed and analyzed using linear regression.

[2] = Homo sapiens, Neutrophil, isolated human neutrophils, 3 nM LTB4, semicolons separate individual assay determinations, read-out: CD11b/CD18 IC50
[3] = isolated human neutrophils, 3 nM LTB4, semicolons separate individual assay determinations, read-out: CD11b/CD18 IC50
[4] = Homo sapiens, Neutrophil, read-out: CD11b/CD18 IC50 (nM), isolated human neutrophils, 3 nM LTB4, semicolons separate individual assay determinations
[5] = read-out: CD11b/CD18 IC50, isolated human neutrophils, 3 nM LTB4, semicolons separate individual assay determinations, sodium salt

IC50 [1, 2] [nM] | IC50 [1, 3] | SMILES | also measured
 |  | CCCc1c(OCCCOc2cc(O)c(C3CCOC3)cc2CC)cccc1Oc1ccccc1C(=O)[O-].[Na+] (stereo not shown) (hydrate or solvate) [Example 15, 2-(3-{3-[2-Ethyl-5-hydroxy-4-(tetrahydrofuran-3-yl)phenoxy]propoxy}-2-propylphenoxy)benzoic acid sodium salt hemihydrate] | melting point: 67 to 71 °C
 |  | CCCc1c(OCCCOc2cc(O)c(-c3ccsc3)cc2CC)cccc1Oc1ccccc1C(=O)O (hydrate or solvate) [Example 17, 2-{3-[3-(2-Ethyl-5-hydroxy-4-thiophen-3-yl-phenoxy)propoxy]-2-propyl-phenoxy}benzoic acid hydrate] | melting point: 90 to 95 °C (dec.)
 |  | CCCc1c(OCCCOc2cc(O)c(-c3ccc(F)cc3)cc2CC)cccc1Oc1ccccc1C(=O)O [Compound A, reference compound] | IC50 ([1]; Homo sapiens, Neutrophil, comparison compounds, isolated human neutrophils, 3 nM LTB4, A = average of 3 tests, read-out: IC-50 (nM) ± SEM): 1.7 ± 0.25 nM
 |  | CCCc1c(OCCCOc2cc(O)c(-c3ccc(F)cc3)cc2CC)cccc1Oc1ccccc1C#N [Compound B, reference compound] | IC-50 (nM) ± SEM ([1]; comparison compounds, isolated human neutrophils, 3 nM LTB4, A = average of 3 tests): not active
480 |  | CCCc1c(OCCCOc2cc(O)c(-c3cocn3)cc2CC)cccc1Oc1ccccc1C(=O)O [Example 1, 2-{3-[3-(2-Ethyl-5-hydroxy-4-oxazol-4-yl-phenoxy)propoxy]-2-propyl-phenoxy}benzoic acid] | 
5880 |  | CCCc1c(OCCCOc2cc(O)c(-c3cnc[nH]3)cc2CC)cccc1Oc1ccccc1C(=O)O [Example 2, 2-(3-{3-[2-Ethyl-5-hydroxy-4-(3H-imidazol-4-yl)phenoxy]propoxy}-2-propyl-phenoxy)benzoic acid hydrochloride] | 
353 | 339 nM | CCCc1c(OCCCOc2cc(O)c(-c3cscn3)cc2CC)cccc1Oc1ccccc1C(=O)O [Example 3, 2-{3-[3-(2-Ethyl-5-hydroxy-4-thiazol-4-yl-phenoxy)propoxy]-2-propyl-phenoxy}benzoic acid] | 
74 | 117 nM | CCCc1c(OCCCOc2cc(O)c(-c3ccn[nH]3)cc2CC)cccc1Oc1ccccc1C(=O)O [Example 4, 2-(3-{3-[2-Ethyl-5-hydroxy-4-(2H-pyrazol-3-yl)phenoxy]propoxy}-2-propyl-phenoxy)benzoic acid] | 
175 | 223 nM | CCCc1c(OCCCOc2cc(O)c(-c3ccno3)cc2CC)cccc1Oc1ccccc1C(=O)O [Example 5, 2-{3-[3-(2-ethyl-5-hydroxy-4-isoxazol-5-yl-phenoxy)propoxy]-2-propylphenoxy}benzoic acid] | 
260 |  | CCCc1c(OCCCOc2cc(O)c(-c3cnn[nH]3)cc2CC)cccc1Oc1ccccc1C(=O)O [Example 6] | 
2020 | 3790 nM | CCCc1c(OCCCOc2cc(O)c(-n3cccc3)cc2CC)cccc1Oc1ccccc1C(=O)OC [Example 7, 2-{3-[3-(2-ethyl-5-hydroxy-4-pyrrol-1-yl-phenoxy)propoxy]-2-propyl-phenoxy}benzoic acid methyl ester] | 
> 50000 |  | CCCc1c(OCCCOc2cc(O)c(-c3nc(Br)ns3)cc2CC)cccc1Oc1ccccc1C(=O)O [Example 8, 2-(3-{3-[4-(3-bromo-[1,2,4]thiadiazol-5-yl)-2-ethyl-5-hydroxyphenoxy]propoxy}-2-propylphenoxy)benzoic acid] | 
 |  | CCCc1c(OCCCOc2cc(O)c(-c3cccs3)cc2CC)cccc1Oc1ccccc1C(=O)O [Example 9, 2-{3-[3-(2-Ethyl-5-hydroxy-4-thiophen-2-yl-phenoxy)propoxy]-2-propyl-phenoxy}benzoic acid sodium salt] | IC50 [1, 4]: 23 nM; IC50 [1, 5]: 20 nM
 | 14 nM and 4.4 nM and 8.3 nM | CCCc1c(OCCCOc2cc(O)c(-c3cnn(C)c3)cc2CC)cccc1Oc1ccccc1C(=O)O [Example 10, 2-(3-{3-[2-ethyl-5-hydroxy-4-(1-methyl-1H-pyrazol-4-yl)-phenoxy]propoxy}-2-propylphenoxy)benzoic acid] | 
 | 620 nM and 2560 nM and 1010 nM | CCCc1c(OCCCOc2cc(O)c(-c3nccs3)cc2CC)cccc1Oc1ccccc1C(=O)O [Example 11, 2-{3-[3-(2-Ethyl-5-hydroxy-4-thiazol-2-yl-phenoxy)propoxy]-2-propyl-phenoxy}benzoic acid] | 
 |  | CCCc1c(OCCCOc2cc(O)c(-c3c(C)noc3C)cc2CC)cccc1Oc1ccccc1C(=O)O [Example 12, 2-(3-{3-[4-(3,5-Dimethylisoxazol-4-yl)-2-ethyl-5-hydroxyphenoxy]propoxy}-2-propylphenoxy)benzoic acid sodium salt] | IC50 [1, 4]: 10000 nM; IC50 [1, 5]: 5700 nM
 |  | CCCc1c(OCCCOc2cc(O)c(-c3ccco3)cc2CC)cccc1Oc1ccccc1C(=O)O [Example 13, 2-{3-[3-(2-Ethyl-4-furan-2-yl-5-hydroxyphenoxy)propoxy]-2-propylphenoxy}-benzoic acid sodium salt] | IC50 [1, 4]: 39 nM; IC50 [1, 5]: 54 nM
31 | 30 nM | CCCc1c(OCCCOc2cc(O)c(-c3ccoc3)cc2CC)cccc1Oc1ccccc1C(=O)O [Example 14] | 
 |  | CCCc1c(OCCCOc2cc(O)c(C3CCOC3)cc2CC)cccc1Oc1ccccc1C(=O)O (stereo not shown) [Example 15, 2-(3-{3-[2-Ethyl-5-hydroxy-4-(tetrahydrofuran-3-yl)phenoxy]propoxy}-2-propylphenoxy)benzoic acid sodium salt hemihydrate] | IC50 [1, 4]: 27 nM
1080 |  | CCCc1c(OCCCOc2cc(O)c(C3CCCN3)cc2CC)cccc1Oc1ccccc1C(=O)O (stereo not shown) [Example 16, 2-{3-[3-(2-Ethyl-5-hydroxy-4-pyrrolidin-2-yl-phenoxy)propoxy]-2-propyl-phenoxy}benzoic acid hydrochloride hydrate] | IC50 ([1]; isolated human neutrophils, 3 nM LTB4, semicolons separate individual assay determinations, hydrochloride hydrate, read-out: CD11b/CD18 IC50): 837 nM
11 |  | CCCc1c(OCCCOc2cc(O)c(-c3ccsc3)cc2CC)cccc1Oc1ccccc1C(=O)O [Example 17, 2-{3-[3-(2-Ethyl-5-hydroxy-4-thiophen-3-yl-phenoxy)propoxy]-2-propyl-phenoxy}benzoic acid hydrate] | IC50 ([1]; isolated human neutrophils, 3 nM LTB4, semicolons separate individual assay determinations, hydrate, read-out: CD11b/CD18 IC50): 5.6 nM and 8 nM
